Laboratory results reported in PubChem BioAssay (NCI).
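Tested at 5 concentrations; 48 h exposure; 96-well plates; endpoints linearly interpolated, else capped at highest concentration. At the TGI there is no net growth.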

Columns and labels:
Assay in all cases: DTP human tumour cell line panel, 48 h
[1] = test system: MDA-N
[2] = test system: SNB-75 CNS
[3] = test system: MCF7 breast
[4] = test system: NCI-H460 lung
[5] = test system: MALME-3M melanoma
[6] = test system: 786-0 renal
[7] = test system: CAKI-1 renal
[8] = test system: PC-3 prostate
[9] = test system: K-562 leukemia
[10] = test system: SNB-19 CNS
[11] = test system: NCI-H226 lung
[12] = test system: CCRF-CEM leukemia
[13] = test system: MDA-MB-231 breast
[14] = test system: T-47D breast
[15] = test system: A549 NSCLC
[16] = test system: COLO 205 colon
[17] = test system: HCT-15 colon
[18] = test system: UACC-62 melanoma
[19] = test system: UACC-257 melanoma
[20] = test system: SW-620 colon
[21] = test system: LOX IMVI melanoma
[22] = test system: RPMI-8226 leukemia
[23] = test system: SF-539 CNS
[24] = test system: SR leukemia
[25] = test system: ACHN renal
[26] = test system: TK-10 renal
[27] = test system: M14 melanoma
[28] = test system: HT29 colon
[29] = test system: A498 renal
[30] = test system: HCC-2998 colon
[31] = test system: SN12C renal
[32] = test system: KM12 colon
[33] = test system: OVCAR-8 ovarian
[34] = test system: EKVX NSCLC
[35] = test system: OVCAR-5 ovarian
[36] = test system: SK-MEL-28 melanoma
[37] = test system: SK-MEL-5 melanoma
[38] = test system: NCI-H522 lung
[39] = test system: DU-145 prostate
[40] = test system: RXF 393 renal
[41] = test system: NCI/ADR-RES ovarian
[42] = test system: HL-60(TB) leukemia
[43] = test system: HOP-92 NSCLC
[44] = test system: HCT-116 colon
[45] = test system: BT-549 breast
[46] = test system: OVCAR-4 ovarian
[47] = test system: IGROV1 ovarian
[48] = test system: UO-31 renal
[49] = test system: U251 CNS
[50] = test system: SK-MEL-2 melanoma
[51] = test system: MDA-MB-435
[52] = test system: NCI-H23 lung
[53] = test system: SF-268 CNS
[54] = test system: HOP-62 NSCLC
[55] = test system: MOLT-4 leukemia
[56] = test system: SF-295 CNS
[57] = test system: OVCAR-3 ovarian
[58] = test system: SK-OV-3 ovarian

Measured: TGI

Cc1cn([C@@H]2C[C@H]2CO)c(=O)[nH]c1=O
not listed: [56] | [57] | [58]
> 100 µM: all other assays above

CNC(=O)N(CCC#N)[C@H]1CCCC[C@@H]1N(C(=O)NC)c1ccccc1
not listed: [29] | [42] | [53]
> 100 µM: all other assays above
